{"source": "ChEMBL document CHEMBL1201862", "about": "“PubChem BioAssay data set” (2004)", "key": {"Genome polyprotein [1]": {"biological_target": "Genome polyprotein (Hepatitis C virus, UniProt Q2Q167)", "sequence (Q2Q167 whole entry)": "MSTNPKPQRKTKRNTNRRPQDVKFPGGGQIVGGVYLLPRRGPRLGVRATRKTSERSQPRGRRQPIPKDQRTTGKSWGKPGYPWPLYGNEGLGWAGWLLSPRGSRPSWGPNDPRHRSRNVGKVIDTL", "test": "disruption of hepatitis C core self-association – biochemical, TR-FRET, dose response (AID 2159);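 also: blocks dimerization of HCV core protein measured by TR-FRET between tagged core106 pairs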", "design": "species or system Hepacivirus hominis"}, "SUMO-activating enzyme [2]": {"biological_target": "T1, SUMO-activating enzyme (Homo sapiens, UniProt Q9UBT2)", "T1 sequence (Q9UBE0 whole entry)": "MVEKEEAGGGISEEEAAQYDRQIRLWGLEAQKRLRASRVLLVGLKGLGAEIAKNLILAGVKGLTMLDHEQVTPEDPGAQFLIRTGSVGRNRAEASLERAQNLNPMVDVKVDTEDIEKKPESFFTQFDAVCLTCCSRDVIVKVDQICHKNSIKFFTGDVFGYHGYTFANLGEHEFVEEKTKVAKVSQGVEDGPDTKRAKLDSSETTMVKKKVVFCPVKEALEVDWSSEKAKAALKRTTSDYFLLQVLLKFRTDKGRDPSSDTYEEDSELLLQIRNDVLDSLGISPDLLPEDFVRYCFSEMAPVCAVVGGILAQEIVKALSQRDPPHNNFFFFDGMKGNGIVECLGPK", "T1 sequence (Q9UBT2 whole entry)": "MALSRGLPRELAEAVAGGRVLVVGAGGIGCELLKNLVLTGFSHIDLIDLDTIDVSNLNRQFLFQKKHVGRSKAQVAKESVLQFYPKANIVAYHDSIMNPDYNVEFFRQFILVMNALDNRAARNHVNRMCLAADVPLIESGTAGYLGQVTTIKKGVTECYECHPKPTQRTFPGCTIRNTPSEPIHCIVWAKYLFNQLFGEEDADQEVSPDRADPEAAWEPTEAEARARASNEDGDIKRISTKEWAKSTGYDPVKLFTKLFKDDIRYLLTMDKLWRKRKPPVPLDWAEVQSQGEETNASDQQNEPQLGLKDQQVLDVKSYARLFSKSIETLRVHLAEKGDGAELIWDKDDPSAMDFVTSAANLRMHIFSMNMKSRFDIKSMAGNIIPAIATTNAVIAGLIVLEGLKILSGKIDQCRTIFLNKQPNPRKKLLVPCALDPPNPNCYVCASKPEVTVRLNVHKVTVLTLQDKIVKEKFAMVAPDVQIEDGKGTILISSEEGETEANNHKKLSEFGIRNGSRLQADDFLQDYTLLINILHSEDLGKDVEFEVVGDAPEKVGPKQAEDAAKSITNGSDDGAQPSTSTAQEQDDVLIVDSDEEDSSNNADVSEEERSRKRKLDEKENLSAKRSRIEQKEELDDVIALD", "test": "blockers of UBC9-mediated SUMO conjugation – biochemical, AlphaScreen, SUMOylation inhibitor project, confirmation (AID 2018)", "assay_type": "functional"}, "SUMO-activating enzyme [3]": {"biological_target": "T1, SUMO-activating enzyme", "test": "blockers of SAE1/SAE2–UBC9 SUMO transfer – biochemical, HTRF, uHTS, primary screen (AID 2006)", "assay_type": "protein-complex assay"}, "Genome polyprotein [4]": {"biological_target": "Genome polyprotein (dengue virus type 2, UniProt P29990)", "sequence (P29990 2492-3391 limits assumed)": "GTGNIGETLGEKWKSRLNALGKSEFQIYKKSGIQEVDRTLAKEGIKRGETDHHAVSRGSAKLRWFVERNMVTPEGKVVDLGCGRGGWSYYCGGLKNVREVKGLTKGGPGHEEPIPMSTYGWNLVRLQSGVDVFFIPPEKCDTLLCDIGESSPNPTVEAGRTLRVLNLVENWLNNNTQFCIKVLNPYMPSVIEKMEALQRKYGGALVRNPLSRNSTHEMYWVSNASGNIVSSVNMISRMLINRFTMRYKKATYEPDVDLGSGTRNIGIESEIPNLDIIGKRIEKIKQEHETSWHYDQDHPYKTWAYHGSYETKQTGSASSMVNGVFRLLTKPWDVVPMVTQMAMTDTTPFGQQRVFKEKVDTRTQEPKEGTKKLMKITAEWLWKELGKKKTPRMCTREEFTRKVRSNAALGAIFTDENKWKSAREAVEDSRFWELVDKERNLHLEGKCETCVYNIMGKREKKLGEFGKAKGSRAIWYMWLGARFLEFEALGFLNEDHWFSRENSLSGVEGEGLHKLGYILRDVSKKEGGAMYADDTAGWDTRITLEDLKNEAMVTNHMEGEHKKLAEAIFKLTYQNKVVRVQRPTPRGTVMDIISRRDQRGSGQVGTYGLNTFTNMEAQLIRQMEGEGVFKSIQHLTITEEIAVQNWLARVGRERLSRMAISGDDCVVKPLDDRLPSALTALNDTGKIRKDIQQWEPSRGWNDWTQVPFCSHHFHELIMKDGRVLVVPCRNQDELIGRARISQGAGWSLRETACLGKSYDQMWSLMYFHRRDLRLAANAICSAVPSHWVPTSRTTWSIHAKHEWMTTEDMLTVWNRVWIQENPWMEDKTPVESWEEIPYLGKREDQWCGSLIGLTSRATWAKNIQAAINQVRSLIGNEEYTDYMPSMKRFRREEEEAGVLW", "test": "flavivirus cap methylation enzyme inhibition – biochemical, confirmation dose response, primary screen (AID 588689)", "assay_type": "functional"}, "[5]": {"biological_target": "Mitogen-activated protein kinase 10 (Homo sapiens, UniProt P53779)", "sequence (P53779 whole entry)": "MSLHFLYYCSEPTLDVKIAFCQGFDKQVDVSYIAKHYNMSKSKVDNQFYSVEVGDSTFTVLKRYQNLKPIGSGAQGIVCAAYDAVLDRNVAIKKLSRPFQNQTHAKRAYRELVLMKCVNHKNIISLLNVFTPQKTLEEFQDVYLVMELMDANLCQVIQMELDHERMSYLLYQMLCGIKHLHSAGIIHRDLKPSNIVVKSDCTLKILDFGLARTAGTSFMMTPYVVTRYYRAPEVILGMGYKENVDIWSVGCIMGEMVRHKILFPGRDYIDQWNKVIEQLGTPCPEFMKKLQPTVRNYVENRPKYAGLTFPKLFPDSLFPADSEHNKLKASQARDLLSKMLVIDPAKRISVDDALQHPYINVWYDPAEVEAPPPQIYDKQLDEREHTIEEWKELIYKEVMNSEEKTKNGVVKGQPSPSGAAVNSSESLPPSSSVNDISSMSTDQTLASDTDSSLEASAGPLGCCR", "test": "Dose response biochemical screening assay for inhibitors of c-Jun N-Terminal Kinase 3 (JNK3). [Related pubchem assays: 746 ]"}, "[6]": {"biological_target": "Sphingosine 1-phosphate receptor 2 (Homo sapiens, UniProt O95136)", "sequence (O95136 whole entry)": "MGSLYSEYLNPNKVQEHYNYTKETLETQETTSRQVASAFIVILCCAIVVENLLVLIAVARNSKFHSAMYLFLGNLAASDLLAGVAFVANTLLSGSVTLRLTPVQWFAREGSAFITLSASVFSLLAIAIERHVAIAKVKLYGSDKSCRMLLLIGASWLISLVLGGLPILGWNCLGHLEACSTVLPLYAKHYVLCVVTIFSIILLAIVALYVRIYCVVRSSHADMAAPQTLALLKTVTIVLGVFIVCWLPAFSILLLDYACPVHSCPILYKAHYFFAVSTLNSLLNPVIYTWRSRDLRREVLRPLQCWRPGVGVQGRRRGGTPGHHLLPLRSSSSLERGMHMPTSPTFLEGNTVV", "test": "Dose Response Cell Based Assay for Antagonists of the S1P2 Receptor. [Related pubchem assays: 856, 736 ]", "assay_type": "functional"}, "[7]": {"test_system": "Streptococcus sp. 'group A'", "test": "Streptococcus pyogenes SK(-)GAS viability under kanamycin – luminescence, BacTiterGlo, confirmation, counter-screen for streptokinase expression inhibitor project, dose response (AID 1900)", "assay_type": "functional, organism-based"}, "[8]": {"test": "HPDE-C7 pancreatic duct cell viability loss – fluorescence, HTS (AID 430)", "assay_type": "functional, cell-based", "conditions": "Homo sapiens"}, "[9]": {"test": "viability loss of HPDE-C7K cells – cell-based, fluorescence, HTS, primary screen (AID 431)", "assay_type": "functional", "conditions": "Homo sapiens"}, "Streptococcus": {"test_system": "Streptococcus", "test": "GAS UMAA2166 growth inhibition – luminescence, BacTiterGlo, counter-screen for streptokinase expression inhibitor project, dose response (AID 1915)", "assay_type": "functional, organism-based"}, "HEK293": {"test_system": "HEK293", "test": "EBV LMP1 TES2 canonical NF-kB signalling blockers – cell-based, HEK293, luciferase, cherry-pick, dose response (AID 588343)", "assay_type": "functional", "conditions": "Homo sapiens"}, "[10]": {"test": "reduction of Shn3 3'UTR-driven luciferase in osteoblasts – cell-based, Clone20 osteoblasts, firefly luciferase, cherry-picked, dose response (AID 624132)", "assay_type": "functional"}, "[11]": {"test": "loss of viability in HepG2 cells – cell-based, CellTiter-Glo, cherry-picked, cytotoxicity control for Shn3 inhibitor project, dose response (AID 624134)", "assay_type": "functional"}, "[12]": {"test": "non-specific 3'UTR reporter inhibition in Clone20-Shn3RL – cell-based, Renilla luciferase, cherry-picked, counter-screen for Shn3 inhibitor project, dose response (AID 624133)", "assay_type": "functional"}, "Galanin receptor type 3": {"biological_target": "Galanin receptor type 3 (Homo sapiens, UniProt O60755)", "sequence (O60755 whole entry)": "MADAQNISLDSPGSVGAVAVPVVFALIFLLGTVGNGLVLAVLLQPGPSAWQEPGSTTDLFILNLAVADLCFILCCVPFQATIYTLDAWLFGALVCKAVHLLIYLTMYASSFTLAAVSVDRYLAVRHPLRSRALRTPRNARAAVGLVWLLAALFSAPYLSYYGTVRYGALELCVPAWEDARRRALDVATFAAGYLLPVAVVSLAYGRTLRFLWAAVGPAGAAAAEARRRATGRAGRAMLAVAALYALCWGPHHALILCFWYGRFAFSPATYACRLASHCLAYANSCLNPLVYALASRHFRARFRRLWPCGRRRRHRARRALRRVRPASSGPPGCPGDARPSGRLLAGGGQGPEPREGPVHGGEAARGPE", "test": "Fluorescence-based cell-based primary high throughput dose response assay to identify antagonists of the Galanin Receptor 3 (GalR3).", "assay_type": "functional"}, "cells": {"test": "cells", "assay_type": "functional, cell-based", "conditions": "HEK-CNG"}, "[13]": {"biological_target": "T2, RNA-binding protein pos-1 (Caenorhabditis elegans, UniProt G5EF15)", "T2 sequence (G5EF15 whole entry)": "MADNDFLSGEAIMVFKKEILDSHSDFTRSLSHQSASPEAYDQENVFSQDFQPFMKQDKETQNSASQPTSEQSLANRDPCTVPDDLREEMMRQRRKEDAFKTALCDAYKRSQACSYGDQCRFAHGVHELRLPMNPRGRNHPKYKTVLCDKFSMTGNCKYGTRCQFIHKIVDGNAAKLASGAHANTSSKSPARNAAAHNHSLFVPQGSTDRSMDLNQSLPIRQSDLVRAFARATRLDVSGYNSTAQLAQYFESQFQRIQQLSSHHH", "test": "disruptors of C. elegans POS-1 RNA interaction – biochemical, fluorescence polarization, dose response (AID 1964);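 also: purified POS-1 fused to maltose binding protein made in E. coli; potency of compounds blocking POS-1 binding to fluorescent RNA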"}, "Bcl-2-like protein 10": {"biological_target": "T3, Bcl-2-like protein 10 (Homo sapiens, UniProt Q9HD36)", "T3 sequence (Q9HD36 whole entry)": "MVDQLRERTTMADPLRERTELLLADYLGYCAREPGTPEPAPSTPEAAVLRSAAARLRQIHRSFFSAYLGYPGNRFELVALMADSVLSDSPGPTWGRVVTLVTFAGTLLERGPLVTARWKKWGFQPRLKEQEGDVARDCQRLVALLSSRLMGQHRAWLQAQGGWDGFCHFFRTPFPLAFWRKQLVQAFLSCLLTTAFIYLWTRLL", "test": "Bcl-B/TR3 peptide binding disruption – biochemical, fluorescence polarization, FITC-TR3 peptide, selectivity assay for Bfl-1 inhibitor project, primary screen (AID 748);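 also: fluorescence polarization from a fluorescein-labelled TR3 peptide binding purified Bcl-B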"}, "[14]": {"biological_target": "T4, Zinc finger protein mex-5 (Caenorhabditis elegans, UniProt Q9XUB2)", "T4 sequence (Q9XUB2 whole entry)": "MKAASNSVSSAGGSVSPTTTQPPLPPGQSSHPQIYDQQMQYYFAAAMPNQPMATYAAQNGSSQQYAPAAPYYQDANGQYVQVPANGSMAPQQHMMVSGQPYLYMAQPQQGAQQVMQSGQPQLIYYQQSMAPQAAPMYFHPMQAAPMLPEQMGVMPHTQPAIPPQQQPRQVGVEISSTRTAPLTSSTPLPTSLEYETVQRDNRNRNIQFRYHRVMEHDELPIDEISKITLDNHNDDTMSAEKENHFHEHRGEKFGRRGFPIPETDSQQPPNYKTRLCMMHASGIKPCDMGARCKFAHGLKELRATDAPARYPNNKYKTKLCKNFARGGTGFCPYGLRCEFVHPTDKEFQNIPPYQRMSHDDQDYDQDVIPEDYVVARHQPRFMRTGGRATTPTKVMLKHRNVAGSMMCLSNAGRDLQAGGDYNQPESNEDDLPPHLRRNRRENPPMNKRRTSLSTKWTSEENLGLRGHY", "test": "potency of MEX-5 RNA-binding blockers – biochemical, C. elegans, fluorescence polarization, dose response (AID 1960)"}, "Estrogen receptor beta": {"biological_target": "Estrogen receptor beta (Homo sapiens, UniProt Q92731)", "sequence (Q92731 whole entry)": "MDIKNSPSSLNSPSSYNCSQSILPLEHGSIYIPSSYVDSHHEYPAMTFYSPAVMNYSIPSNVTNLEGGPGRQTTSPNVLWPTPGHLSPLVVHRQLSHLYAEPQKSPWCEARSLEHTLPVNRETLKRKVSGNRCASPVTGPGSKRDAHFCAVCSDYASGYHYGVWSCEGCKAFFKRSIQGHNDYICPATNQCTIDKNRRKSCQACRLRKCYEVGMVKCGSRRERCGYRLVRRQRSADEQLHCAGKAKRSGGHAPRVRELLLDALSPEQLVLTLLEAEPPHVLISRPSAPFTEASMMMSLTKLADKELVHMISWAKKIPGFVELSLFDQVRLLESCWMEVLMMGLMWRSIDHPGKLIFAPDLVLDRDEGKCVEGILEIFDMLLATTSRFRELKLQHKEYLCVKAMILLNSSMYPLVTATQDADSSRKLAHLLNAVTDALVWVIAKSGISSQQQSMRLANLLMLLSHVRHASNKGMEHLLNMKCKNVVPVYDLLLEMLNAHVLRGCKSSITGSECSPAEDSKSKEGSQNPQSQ", "test": "blockers of SRC-3 recruitment to ERβ – biochemical, ELISA, streptavidin-HRP readout, orthogonal assay, confirmation (AID 1060)"}, "[15]": {"biological_target": "Bifunctional protein GlmU (Mycobacterium tuberculosis, UniProt P9WMN3)", "sequence (P9WMN3 whole entry)": "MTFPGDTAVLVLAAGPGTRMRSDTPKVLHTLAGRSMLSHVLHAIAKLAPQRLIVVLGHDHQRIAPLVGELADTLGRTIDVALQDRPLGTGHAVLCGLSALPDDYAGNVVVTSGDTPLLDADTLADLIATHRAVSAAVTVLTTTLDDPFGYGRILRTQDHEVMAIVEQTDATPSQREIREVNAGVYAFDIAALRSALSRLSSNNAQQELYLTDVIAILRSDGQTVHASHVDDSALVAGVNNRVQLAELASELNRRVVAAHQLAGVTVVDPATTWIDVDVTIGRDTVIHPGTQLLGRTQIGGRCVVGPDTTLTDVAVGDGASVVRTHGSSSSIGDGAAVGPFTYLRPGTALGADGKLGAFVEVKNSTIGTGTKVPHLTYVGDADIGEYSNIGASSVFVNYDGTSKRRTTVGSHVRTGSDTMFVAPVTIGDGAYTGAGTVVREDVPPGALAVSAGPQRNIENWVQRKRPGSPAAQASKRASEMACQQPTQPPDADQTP", "test": "Inhibitors of Mycobacterial Glucosamine-1-phosphate acetyl transferase (GlmU). Secondary screen.", "design": "species or system Mycobacterium tuberculosis H37Rv"}, "[16]": {"biological_target": "T5, Dual specificity protein phosphatase 6 (Rattus norvegicus, UniProt Q64346)", "T5 sequence (Q64346 whole entry)": "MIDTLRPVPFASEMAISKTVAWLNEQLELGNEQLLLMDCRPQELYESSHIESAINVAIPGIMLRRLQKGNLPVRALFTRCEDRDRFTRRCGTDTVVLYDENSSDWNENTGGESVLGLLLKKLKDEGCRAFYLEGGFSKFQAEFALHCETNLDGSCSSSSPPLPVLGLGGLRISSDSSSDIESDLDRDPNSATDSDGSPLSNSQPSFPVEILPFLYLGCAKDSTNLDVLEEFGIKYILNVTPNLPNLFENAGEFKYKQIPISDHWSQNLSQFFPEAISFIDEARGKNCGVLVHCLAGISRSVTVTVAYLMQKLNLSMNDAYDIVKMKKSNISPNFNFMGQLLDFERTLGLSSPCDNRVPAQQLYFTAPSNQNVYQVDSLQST", "test": "inhibition of rat DUSP6 enzyme activity – biochemical, in vitro, primary screen (AID 425)"}, "[17]": {"biological_target": "T6, Carboxy-terminal domain RNA polymerase II polypeptide A small phosphatase 1 (Homo sapiens, UniProt Q9GZU7)", "T6 sequence (Q9GZU7 whole entry)": "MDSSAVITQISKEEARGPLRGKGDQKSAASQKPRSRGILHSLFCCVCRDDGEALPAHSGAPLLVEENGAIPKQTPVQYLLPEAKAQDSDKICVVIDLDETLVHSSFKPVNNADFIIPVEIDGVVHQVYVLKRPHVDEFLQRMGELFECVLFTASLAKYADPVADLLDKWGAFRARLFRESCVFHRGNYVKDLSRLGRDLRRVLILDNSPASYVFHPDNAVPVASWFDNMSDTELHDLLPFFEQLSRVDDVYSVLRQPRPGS", "test": "CTDSP1 inhibitors, concentration-response, biochemical, absorbance readout, ultra-high-throughput screen actives (AID 540297)", "assay_type": "functional"}, "[18]": {"biological_target": "T7, Histone-lysine N-methyltransferase NSD2 (Homo sapiens, UniProt O96028)", "T7 sequence (O96028 whole entry)": "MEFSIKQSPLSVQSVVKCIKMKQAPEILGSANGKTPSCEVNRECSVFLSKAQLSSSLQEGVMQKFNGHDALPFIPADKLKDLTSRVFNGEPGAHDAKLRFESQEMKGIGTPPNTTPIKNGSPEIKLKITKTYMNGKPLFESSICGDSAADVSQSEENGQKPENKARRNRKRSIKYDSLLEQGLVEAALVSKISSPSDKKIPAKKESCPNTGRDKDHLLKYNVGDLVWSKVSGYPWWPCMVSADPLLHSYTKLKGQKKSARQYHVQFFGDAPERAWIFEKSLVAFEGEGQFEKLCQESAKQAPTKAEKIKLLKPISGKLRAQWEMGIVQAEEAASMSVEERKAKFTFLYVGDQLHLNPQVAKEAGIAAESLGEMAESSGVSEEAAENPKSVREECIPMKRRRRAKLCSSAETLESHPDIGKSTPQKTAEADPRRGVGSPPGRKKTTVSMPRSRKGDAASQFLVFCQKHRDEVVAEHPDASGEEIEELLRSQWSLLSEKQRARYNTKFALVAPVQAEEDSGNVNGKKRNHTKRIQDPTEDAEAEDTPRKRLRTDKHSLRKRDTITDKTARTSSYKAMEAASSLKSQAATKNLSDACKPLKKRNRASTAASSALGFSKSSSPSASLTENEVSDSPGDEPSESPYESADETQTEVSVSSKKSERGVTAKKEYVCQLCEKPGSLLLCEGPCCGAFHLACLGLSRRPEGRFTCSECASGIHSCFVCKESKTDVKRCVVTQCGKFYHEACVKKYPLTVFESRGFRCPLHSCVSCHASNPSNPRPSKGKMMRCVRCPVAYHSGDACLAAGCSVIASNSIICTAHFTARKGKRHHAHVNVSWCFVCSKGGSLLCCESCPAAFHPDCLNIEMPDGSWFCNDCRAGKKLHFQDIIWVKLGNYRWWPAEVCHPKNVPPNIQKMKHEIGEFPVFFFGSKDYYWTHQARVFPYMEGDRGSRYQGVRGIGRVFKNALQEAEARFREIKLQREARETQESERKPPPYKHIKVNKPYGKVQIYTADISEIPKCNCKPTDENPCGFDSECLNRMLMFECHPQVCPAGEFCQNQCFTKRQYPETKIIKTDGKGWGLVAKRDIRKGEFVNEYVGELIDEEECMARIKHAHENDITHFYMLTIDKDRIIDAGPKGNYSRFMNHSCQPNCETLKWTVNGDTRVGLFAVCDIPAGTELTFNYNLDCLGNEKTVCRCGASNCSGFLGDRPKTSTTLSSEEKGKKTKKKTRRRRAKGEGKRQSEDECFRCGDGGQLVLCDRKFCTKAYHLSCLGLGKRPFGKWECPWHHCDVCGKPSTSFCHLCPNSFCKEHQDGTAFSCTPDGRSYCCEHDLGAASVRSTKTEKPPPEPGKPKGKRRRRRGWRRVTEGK", "assay_type": "biochemical"}}, "note": "Calls of active or inactive are those of the source.", "data": [{"smiles": "COc1cc(/C=C2\\C(=O)N(c3ccccc3)N=C2C)ccc1Oc1ccc([N+](=O)[O-])cc1[N+](=O)[O-]", "values": [{"measurement": "IC50", "setting": "Genome polyprotein [1]", "result": "> 49.8 µM (not active)"}, {"measurement": "IC50", "setting": "SUMO-activating enzyme [2]", "result": "5.91 µM (active)"}, {"measurement": "IC50", "setting": "SUMO-activating enzyme [3]", "result": "24.5 µM (active)"}, {"measurement": "IC50", "setting": "Genome polyprotein [4]", "result": "58 µM (active)"}]}, {"smiles": "COc1cc(CC(=O)Nc2sccc2C(N)=O)cc(OC)c1OC", "values": [{"measurement": "IC50", "setting": "[5]", "result": "5.94 µM (active)"}]}, {"smiles": "CCC(NC(=O)Nc1nnc(C(F)(F)F)s1)(C(F)(F)F)C(F)(F)F", "values": [{"measurement": "IC50", "setting": "[6]", "result": "4.77 µM (active)"}, {"measurement": "EC50", "setting": "[7]", "result": "1.4 µM (active)"}, {"measurement": "EC50", "setting": "[8]", "result": "2.79 µM (active)"}, {"measurement": "EC50", "setting": "[9]", "result": "3.15 µM (active)"}, {"measurement": "EC50", "setting": "Streptococcus", "result": "3.27 µM (active)"}, {"measurement": "AC50", "setting": "HEK293", "result": "7.24 µM (active)"}, {"measurement": "AC50", "setting": "[10]", "result": "4.15 µM (active)"}, {"measurement": "AC50", "setting": "[11]", "result": "6.87 µM (active)"}, {"measurement": "AC50", "setting": "[12]", "result": "4.23 µM (active)"}, {"measurement": "IC50", "setting": "Galanin receptor type 3", "result": "> 3.32 µM (active)"}, {"measurement": "EC50", "setting": "cells", "result": "> 29.9 µM (inactive)"}]}, {"smiles": "O=C(O)c1cccc(-n2cccc2/C=N/O)c1", "values": [{"measurement": "EC50", "setting": "[13]", "result": "> 300 µM (not active)"}, {"measurement": "IC50", "setting": "Bcl-2-like protein 10", "result": "18.3 µM (active)"}, {"measurement": "EC50", "setting": "[14]", "result": "> 300 µM (not active)"}, {"measurement": "IC50", "setting": "Estrogen receptor beta", "result": "< 0.023 µM (not active)"}, {"measurement": "IC50", "setting": "[15]", "result": "91.6 µM (active)"}, {"measurement": "IC50", "setting": "[16]", "result": "> 10 µM (not active)"}, {"measurement": "IC50", "setting": "[17]", "result": "3.09 µM (active)"}, {"measurement": "AC50", "setting": "[18]", "result": "12.2 µM (active)"}]}]}
